Key:
14-3-3η = biological target: T1, 14-3-3η (Homo sapiens, UniProt Q04917); test: SPR, PEAK tandem peptides binding to immobilised 14-3-3η; conditions: peptide analyte over amine-coupled 14-3-3η (CM5); Biacore S200, HBS-TP pH 7.4, 20 °C; steady-state 1:1 fit; mean ± S.E.M.; read-out: SPR KD, 14-3-3η (eta)
T1 construct: 14-3-3η (UniProt Q04917-1; residues 1–246); 8-His tag with TEV protease cleavage site (N); made in house; host or cells: E. coli C41 (DE3)
T1 sequence (Q04917 1-246): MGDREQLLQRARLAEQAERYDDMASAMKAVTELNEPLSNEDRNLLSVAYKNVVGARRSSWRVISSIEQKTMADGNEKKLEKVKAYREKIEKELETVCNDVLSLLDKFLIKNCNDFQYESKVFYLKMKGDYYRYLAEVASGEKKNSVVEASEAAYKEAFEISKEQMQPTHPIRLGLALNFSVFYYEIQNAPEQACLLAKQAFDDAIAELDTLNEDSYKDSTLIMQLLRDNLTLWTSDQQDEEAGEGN
Experimental: (§1) Purified […]3 was diluted to 5 μg ml^-1 in 10 mM sodium acetate pH 4.0 and amine coupled at 25 °C to a Series S CM5 sensor chip, in HBS-N running buffer (20 mM HEPES pH 7.4, 150 mM NaCl) to a final immobilization level of 1100-1400 response units (RU), followed by surface deactivation using 1 M ethanolamine. A blank activation/deactivation was used for the reference surface. […] Samples were injected in a multi-cycle run (flow rate 30 μl min^-1, contact time of 60 s, dissociation 120 s) without regeneration. Sensorgrams were double referenced, and steady-state binding data fitted using a 1:1 binding model using Biacore S200 Evaluation Software (Cytiva, v. 1.1). […] Representative sensorgrams and fitted dissociation constant (KD) values, depicted as mean ± S.E.M.

CrkII^NSH3 = biological target: T2, CrkII^NSH3 (Homo sapiens, UniProt P46108); test: ITC, CrkII NSH3 titrated into PEAK3 tandem peptides (binary) or peptide:14-3-3γ complexes (ternary); type: binding; conditions: CrkII NSH3 (400 µM, syringe) into peptide pre-saturated with 14-3-3γ (16.8 µM, cell), 25 °C, HEPES pH 7.4, mean ± S.E.M. of N = 4 (pS69) or N = 1 (non-phosphorylated), read-out: ITC KD, CrkII N-SH3, ternary
T2 construct: CrkII^NSH3; UniProt P46108-1, residues 134–191; 8-His tag with TEV protease cleavage site (N); made in house; host or cells: E. coli C41 (DE3)
Experimental: (§2) ITC binding experiments were conducted using a MicroCal iTC200 instrument (Malvern Instruments). Titrations were conducted at 25 °C in reverse mode (peptide in cell, protein in syringe) and consisted of 19 injections of 2 μl […] at a rate of 2 s μl^−1 at 90 s time intervals, whilst stirring at 1000 rpm. An initial injection of 0.4 μl protein was made and discarded during data analysis. Proteins (14-3-3ɣ or CrkII^NSH3) were first dialyzed overnight at 4 °C into ITC buffer (20 mM HEPES pH 7.4, 150 mM NaCl, 1 mM TCEP), filtered and degassed under vacuum. […] Following the first titration, excess solution was removed from the cell, and the syringe was washed and dried. […] All data were fitted to a single binding site model to obtain the stoichiometry (N), dissociation constant (KD) and the enthalpy of binding (ΔH), using MicroCal PEAQ-ITC Analysis software (v.1.41).

14-3-3γ [1] = biological target: T3, 14-3-3γ (Homo sapiens, UniProt P61981); test: ITC, 14-3-3γ titrated into PEAK3 tandem peptides; type: binding; conditions: binary, 14-3-3γ (syringe) into peptide (20 µM, cell), 25 °C, 20 mM HEPES pH 7.4, 150 mM NaCl, 1 mM TCEP, single-site fit, mean ± S.E.M. of N = 4 (N = 1 for non-phosphorylated peptide)
T3 construct: 14-3-3γ (UniProt P61981-1; residues 1–247); 8-His tag with TEV protease cleavage site (N); made in house; host or cells: E. coli C41 (DE3)
T3 sequence (P61981 1-247): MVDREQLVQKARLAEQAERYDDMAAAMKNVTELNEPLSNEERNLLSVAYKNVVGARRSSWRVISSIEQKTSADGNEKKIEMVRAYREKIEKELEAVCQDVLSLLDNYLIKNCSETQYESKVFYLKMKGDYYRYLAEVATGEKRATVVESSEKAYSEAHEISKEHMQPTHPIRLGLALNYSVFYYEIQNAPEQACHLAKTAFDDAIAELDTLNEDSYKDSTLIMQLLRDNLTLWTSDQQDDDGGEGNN
Experimental: as §2

14-3-3ε = biological target: T4, 14-3-3ε (Homo sapiens, UniProt P62258); test: SPR, PEAK tandem peptides binding to immobilised 14-3-3ε; conditions: peptide analyte over amine-coupled 14-3-3ε (CM5); Biacore S200, HBS-TP pH 7.4, 20 °C; steady-state 1:1 fit; mean ± S.E.M.; read-out: SPR KD, 14-3-3ε (epsilon)
T4 construct: 14-3-3ε (UniProt P62258-1; residues 1–255); 8-His tag with TEV protease cleavage site (N); made in house; host or cells: E. coli C41 (DE3)
T4 sequence (P62258 1-255): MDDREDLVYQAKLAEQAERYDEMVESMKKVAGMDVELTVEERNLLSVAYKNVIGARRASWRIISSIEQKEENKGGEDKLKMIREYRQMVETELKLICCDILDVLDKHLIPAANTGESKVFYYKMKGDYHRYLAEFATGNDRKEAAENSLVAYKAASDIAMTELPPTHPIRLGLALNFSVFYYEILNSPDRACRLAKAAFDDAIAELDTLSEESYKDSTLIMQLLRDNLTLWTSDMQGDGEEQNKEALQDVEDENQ
Experimental: Purified […]3 was diluted to 5 μg ml^-1 in 10 mM sodium acetate pH 4.0 and amine coupled at 25 °C to a Series S CM5 sensor chip, in HBS-N running buffer (20 mM HEPES pH 7.4, 150 mM NaCl) to a final immobilization level of 1100-1400 response units (RU), followed by surface deactivation using 1 M ethanolamine. A blank activation/deactivation was used for the reference surface. […] PEAK PRM peptides: […] Samples were injected in a multi-cycle run (flow rate 30 μl min^-1, contact time of 60 s, dissociation 120 s) without regeneration. Sensorgrams were double referenced, and steady-state binding data fitted using a 1:1 binding model using Biacore S200 Evaluation Software (Cytiva, v. 1.1). […] Representative sensorgrams and fitted dissociation constant (KD) values, depicted as mean ± S.E.M.

14-3-3γ [2] = biological target: T3, 14-3-3γ; test: SPR, PEAK peptides binding to immobilised 14-3-3γ; conditions: peptide analyte over amine-coupled 14-3-3γ (CM5), Biacore S200, HBS-TP pH 7.4, 20 °C, steady-state 1:1 fit, mean ± S.E.M.
Experimental: as §1

T2 sequence (P46108 134-191): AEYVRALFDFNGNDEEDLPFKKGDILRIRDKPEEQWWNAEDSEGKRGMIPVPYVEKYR

## CC[C@H](C)[C@H](NC(=O)[C@H](CCCCN)NC(=O)[C@H](CCCCN)NC(=O)[C@@H]1CCCN1C(=O)[C@H](CC(C)C)NC(=O)[C@@H]1CCCN1C(=O)[C@@H]1CCCN1C(=O)[C@@H]1CCCN1C(=O)[C@H](CC(C)C)NC(=O)[C@@H]1CCCN1C(C)=O)C(=O)N[C@@H](CC(C)C)C(=O)N[C@H](C(=O)N[C@@H](CCCNC(=N)N)C(=O)N[C@H](C(=O)N[C@@H](CCC(N)=O)C(=O)N[C@@H](CO)C(=O)N[C@@H](CC(C)C)C(=O)N1CCC[C@H]1C(=O)N[C@H](C(=O)N[C@@H](CCCNC(=N)N)C(=O)N[C@@H](CCCNC(=N)N)C(N)=O)[C@@H](C)O)[C@@H](C)O)[C@@H](C)O (single isomer, unassigned) [PEAK3^tandem]
14-3-3η
  Kd: > 100 µM
CrkII^NSH3
  Kd: 0.7 µM
14-3-3γ [1]
  ITC KD, 14-3-3γ: no appreciable binding
14-3-3γ [1]; 54–74
  ITC KD, 14-3-3γ: No binding
14-3-3γ [1]; listed as PEAK3 tandem
  ITC KD, 14-3-3γ: no binding
14-3-3ε
  Kd: > 100 µM
14-3-3γ [2]
  SPR KD, 14-3-3γ (gamma): no appreciable binding
14-3-3γ [2]; 54–74
  SPR KD, 14-3-3γ (gamma): No binding
14-3-3γ [2]; read-out: SPR KD, 14-3-3γ (gamma)
  Kd: > 100 µM
